# Assay results published in US12336980B2, “Dosing regimen for a selective S1P1 receptor agonist” (Vanda Pharmaceuticals Inc., priority 2014, dated 2025).
# Tests used:
# healthy subjects = experiment: Pulmonary function tests and clinical laboratory (hematology); type: in vivo, human; details: hemoglobin, hematocrit, red blood cell count, basophils, eosinophils, neutrophils, monocytes, platelet count
# Procedure: Safety and tolerability were evaluated by monitoring adverse events (AEs), vital signs measurements (supine blood pressure), pulmonary function tests (PFTs; i.e., FEV1 and FVC), clinical laboratory, physical, and neurological examinations. Recording of blood pressure was performed at the same time-points as 12-lead ECG.
# [1] = tested on: circulating total lymphocyte count; experiment: Total lymphocyte count by hemocytometry; type: in vivo, human; details: for total lymphocyte count, mean percentage change from baseline (±SD): Day 3; for total lymphocyte count, decrease from baseline: Day 6
# Description: The enrolled subjects came to the study center for each treatment period on Day −2 and participated in a run-in (all study procedures performed without study drug administration) on Day −1. On Day 1, subjects were randomized to one of the two possible sequences of the two up-titration regimens A and B (ratio 1:1). On Day 1, all subjects received placebo; the first study drug administration (or its matching placebo) occurred on Day 2. Regimen A consisted of the novel up-titration regimen: ponesimod was administered once daily (o.d.) orally at a dose of 2 mg on Day 2 and Day 3, 3 mg on Day 4 and Day 5, 4 mg on Day 6 and Day 7, 5 mg on Day 8, 6 mg on Day 9, 7 mg on Day 10, 8 mg on Day 11, 9 mg on Day 12, 10 mg on Day 13 and Day 14, and 20 mg on Day 15. The reference regimen (regimen B) was based on previous studies (Olsson T. et al., Oral ponesimod in relapsing-remitting multiple sclerosis: a randomised phase II trial. J Neurol Neurosurg Psychiatry. 2014; 85 (11): 1198-1208; and Vaclavkova A. et al., Oral ponesimod in patients with chronic plaque psoriasis: a randomised, double-blind, placebo-controlled phase 2 trial. Lancet. 2014; 384 (9959): 2036-2045) and consisted of an o.d. oral administration of ponesimod at a dose of 10 mg for 7 days (i.e., from Day 2 to Day 8) and 20 mg on Day 9. From Day 10 to Day 15 subjects received o.d. the matching placebo. In the placebo group (1:1 sex ratio), subjects received placebo from Day 1 to Day 15. All treatments were administered at the same time in the morning (fasted condition) with approximately 240 mL of water. Blood samples of about 3 mL were collected in ethylene di-amine tetra acetic acid tubes at pre-dose and 3 h after study drug administration from Day 1 to Day 15 in each treatment period. After centrifugation, plasma was transferred into a polypropylene tube and stored at −21° C. (±5° C.) pending analysis. Plasma concentrations of ponesimod were determined using a validated liquid chromatography coupled to tandem mass spectrometry assay with a lower limit of quantification of 1 ng/mL (Brossard P. et al., Pharmacokinetics and pharmacodynamics of ponesimod, a selective S1 P1 receptor modulator, in the first-in-human study. British journal of clinical pharmacology. 2013; 76 (6): 888-896). Trough samples were taken on Day −1, Day 3, Day 6, Day 9, Day 12, and Day 15 of each treatment period and at EOFP and EOS to assess total lymphocyte count by hemocytometry. Cardiodynamic and pharmacodynamic data are expressed as mean±SD. Repeated measure one-way ANOVAs followed by Tukey's multiple-comparisons tests were used to perform inter-group (i.e., placebo vs. regimen A vs. regimen B) comparisons. Student's t-tests were employed to perform intra-group (baseline vs. treatment) comparisons. Differences were considered to be statistically significant at p <0.05. SAS® version 9.2 (SAS Institute, Cary, NC, USA) was used for the statistical analysis and descriptive statistics of clinical data.
structure (smiles),measurement,setting,value
"CCC/N=C1\S/C(=C\c2ccc(OC[C@H](O)CO)c(Cl)c2)C(=O)N1c1ccccc1C [ponesimod, (R)-5-[3-chloro-4-(2,3-dihydroxy-propoxy)-benz[Z]ylidene]-2-([Z]-propylimino)-3-o-tolyl-thiazolidin-4-one]",effect on PFT variables and hematology variables,healthy subjects,No treatment effect
same,recovery of individual total lymphocyte count,"[1]; at EOFP and EOS, normal range i.e. 80% of baseline",returned to within the normal range
same,"total lymphocyte count, mean percentage change from baseline (±SD)",[1]; regimen A,−11.6±10.2%
same,"total lymphocyte count, decrease from baseline",[1]; regimen A,−15.0±14.4%
same,"total lymphocyte count, decrease following the last dose of 10 mg","[1]; regimen A, Day 15 before administration of the dose of 20 mg",−50.8±12.1%
same,"total lymphocyte count, mean percentage change from baseline (±SD)",[1]; regimen B,−28.9±12.2%
same,"total lymphocyte count, decrease from baseline",[1]; regimen B,−46.5±12.3%
same,"total lymphocyte count, decrease following the last dose of 10 mg","[1]; regimen B, Day 9 before administration of the dose of 20 mg",−52.3±11.0%
